# Laboratory results taken from ChEMBL document CHEMBL4382200, “Discovery of Novel 7-Aryl 7-Deazapurine 3'-Deoxy-ribofuranosyl Nucleosides with Potent Activity against Trypanosoma cruzi” (J Med Chem, 2018).
# The source made the active and inactive calls. The rule behind the calls is not given here.
# Experiments:
# [1] = Drug metabolism in mouse liver microsome S9 fraction assessed as UGT-mediated metabolism by measuring compound remaining at 5 uM pretreated with UDPGA and measured after 15 mins by UPLC-MS/MS analysis; assay type: ADME, microsomes; conditions: microsomes, 0.25 h, 5 µM
# [2] = test system: UGT; experiment: Drug metabolism in mouse liver microsome S9 fraction assessed as UGT-mediated metabolism by measuring compound remaining at 5 uM pretreated with UDPGA and measured after 30 mins by UPLC-MS/MS analysis; assay type: ADME, microsomes; conditions: liver microsome S9 fraction, read-out: Stability
# [3] = molecular target: T1, UDP-glucuronosyltransferases (UGTs) (family) (Homo sapiens, UniProt O60656+O75310+O75795+P06133+P0DTE4+P0DTE5+P16662+P19224+P22309+P22310+P35503+P35504+P36537+P54855+Q6UWM9+Q9BY64+Q9HAW7+Q9HAW8+Q9HAW9); experiment: Drug metabolism in human liver microsome S9 fraction assessed as UGT-mediated metabolism by measuring compound remaining at 5 uM pretreated with UDPGA and measured after 15 mins by UPLC-MS/MS analysis; assay type: ADME, microsomes; conditions: liver microsome S9 fraction, read-out: Stability
# [4] = test system: CYP450; experiment: Drug metabolism in dog liver microsome S9 fraction assessed as CYP450-mediated metabolism by measuring compound remaining at 5 uM pretreated with NADPH and measured after 15 mins by UPLC-MS/MS analysis; assay type: ADME, microsomes, Canis lupus familiaris; conditions: liver microsome S9 fraction, read-out: Stability
# [5] = test system: Trypanosoma cruzi; experiment: Antiparasitic activity against Trypanosoma cruzi Y strain bloodstream trypomastigotes infected in Swiss Webster mouse assessed as decrease in parasitemia at 25 mg/kg, po bid via gavage administered for 5 consecutive days measured at day 8 post infection by direct microscopic counting relative to control; assay type: functional; design: scale not given: the % may be the effect or the level left
# [6] = test system: UGT; experiment: Drug metabolism in rat liver microsome S9 fraction assessed as UGT-mediated metabolism by measuring compound remaining at 5 uM pretreated with UDPGA and measured after 60 mins by UPLC-MS/MS analysis; assay type: ADME, microsomes; conditions: liver microsome S9 fraction, read-out: Stability
# [7] = molecular target: T1, UDP-glucuronosyltransferases (UGTs) (family); experiment: Drug metabolism in human liver microsome S9 fraction assessed as UGT-mediated metabolism by measuring compound remaining at 5 uM pretreated with UDPGA and measured after 30 mins by UPLC-MS/MS analysis; assay type: ADME, microsomes; conditions: liver microsome S9 fraction, read-out: Stability
# [8] = test system: UGT; experiment: Drug metabolism in rat liver microsome S9 fraction assessed as UGT-mediated metabolism by measuring compound remaining at 5 uM pretreated with UDPGA and measured after 15 mins by UPLC-MS/MS analysis; assay type: ADME, microsomes; conditions: liver microsome S9 fraction, read-out: Stability
# [9] = test system: CYP450; experiment: Drug metabolism in mouse liver microsome S9 fraction assessed as CYP450-mediated metabolism by measuring compound remaining at 5 uM pretreated with NADPH and measured after 30 mins by UPLC-MS/MS analysis; assay type: ADME, microsomes; conditions: liver microsome S9 fraction, read-out: Stability
# [10] = test system: Trypanosoma cruzi; experiment: Trypanocidal activity against Trypanosoma cruzi Y strain intracellular amastigotes infected in mouse cardiac cells assessed as parasite death after 168 hrs by Giemsa-staining based assay; assay type: functional, organism-based
# [11] = test system: CYP450; experiment: Drug metabolism in dog liver microsome S9 fraction assessed as CYP450-mediated metabolism by measuring compound remaining at 5 uM pretreated with NADPH and measured after 60 mins by UPLC-MS/MS analysis; assay type: ADME, microsomes, Canis lupus familiaris; conditions: liver microsome S9 fraction, read-out: Stability
# [12] = test system: UGT; experiment: Drug metabolism in mouse liver microsome S9 fraction assessed as UGT-mediated metabolism by measuring compound remaining at 5 uM pretreated with UDPGA and measured after 60 mins by UPLC-MS/MS analysis; assay type: ADME, microsomes; conditions: liver microsome S9 fraction, read-out: Stability
# [13] = Cytotoxicity against Swiss mouse embryonic cardiomyocytes assessed as reduction in cell contractibillity at 2 uM after 24 hrs by light microscopy; conditions: cardiac muscle cell
# [14] = test system: Trypanosoma cruzi; experiment: Trypanocidal activity against Trypanosoma cruzi Y strain bloodstream trypomastigotes isolated from infected Swiss mouse […] assessed as parasite death after 24 hrs by neubauer chamber based light microscopy; assay type: functional, organism-based
# [15] = Therapeutic index, ratio EC50 for human MRC5 SV2 cells to EC50 for Trypanosoma cruzi Tulahuen CL2 intracellular amastigotes; assay type: toxicity, cell-based; conditions: read-out: Ratio EC50
# [16] = molecular target: T2, Cytochrome P450 (family) (Homo sapiens, UniProt P04798+P05177+P05181+P08684+P10632+P10635+P11509+P11712+P13584+P20813+P20815+P20853+P24462+P24903+P33260+P33261+P51589+P78329+P98187+Q02928+Q08477+Q16678+Q16696+Q5TCH4+Q6VVX0+Q7Z449+Q8TAV3+Q96SQ9+Q9HB55); experiment: Drug metabolism in human liver microsome S9 fraction assessed as CYP450-mediated metabolism by measuring compound remaining at 5 uM pretreated with NADPH and measured after 60 mins by UPLC-MS/MS analysis; assay type: ADME, microsomes; conditions: liver microsome S9 fraction, read-out: Stability
# [17] = test system: CYP450; experiment: Drug metabolism in rat liver microsome S9 fraction assessed as CYP450-mediated metabolism by measuring compound remaining at 5 uM pretreated with NADPH and measured after 60 mins by UPLC-MS/MS analysis; assay type: ADME, microsomes; conditions: liver microsome S9 fraction, read-out: Stability
# [18] = Drug metabolism in rat liver microsome S9 fraction assessed as CYP450-mediated metabolism by measuring compound remaining at 5 uM pretreated with NADPH and measured after 15 mins by UPLC-MS/MS analysis; assay type: ADME, microsomes; conditions: microsomes, 0.25 h, 5 µM
# [19] = Toxicity in Swiss Webster mouse infected with Trypanosoma cruzi Y strain bloodstream trypomastigotes assessed as weight loss at 25 mg/kg, po bid via gavage administered for 5 consecutive days measured at day 40 post infection; assay type: organism-based; conditions: in vivo
# [20] = test system: Trypanosoma cruzi; experiment: Antiparasitic activity against Trypanosoma cruzi Tulahuen CL2 intracellular amastigotes expressing beta-galactosidase infected in human MRC5 SV2 cells after 7 days by chlorophenol red beta-D-galactopyranoside-based spectrophotometric analysis; assay type: functional, organism-based; conditions: Tulahuen CL2, MRC-5 SV2, 168 h, read-out: EC50
# [21] = test system: UGT; experiment: Drug metabolism in rat liver microsome S9 fraction assessed as UGT-mediated metabolism by measuring compound remaining at 5 uM pretreated with UDPGA and measured after 30 mins by UPLC-MS/MS analysis; assay type: ADME, microsomes; conditions: liver microsome S9 fraction, read-out: Stability
# [22] = test system: Trypanosoma cruzi; experiment: Antiparasitic activity against Trypanosoma cruzi Y strain bloodstream trypomastigotes infected in Swiss Webster mouse at 25 mg/kg, po bid via gavage administered for 5 consecutive days starting from day 5 post infection followed by cyclophosphamide-induced immunosuppression on day 40 post infection for 4 consecutive days; assay type: functional, organism-based
# [23] = molecular target: T1, UDP-glucuronosyltransferases (UGTs) (family); experiment: Drug metabolism in human liver microsome S9 fraction assessed as UGT-mediated metabolism by measuring compound remaining at 5 uM pretreated with UDPGA and measured after 60 mins by UPLC-MS/MS analysis; assay type: ADME, microsomes; conditions: liver microsome S9 fraction, read-out: Stability
# [24] = test system: UGT; experiment: Drug metabolism in dog liver microsome S9 fraction assessed as UGT-mediated metabolism by measuring compound remaining at 5 uM pretreated with UDPGA and measured after 60 mins by UPLC-MS/MS analysis; assay type: ADME, microsomes, Canis lupus familiaris; conditions: liver microsome S9 fraction, read-out: Stability
# [25] = molecular target: T2, Cytochrome P450 (family); experiment: Drug metabolism in human liver microsome S9 fraction assessed as CYP450-mediated metabolism by measuring compound remaining at 5 uM pretreated with NADPH and measured after 30 mins by UPLC-MS/MS analysis; assay type: ADME, microsomes; conditions: liver microsome S9 fraction, read-out: Stability
# [26] = test system: CYP450; experiment: Drug metabolism in rat liver microsome S9 fraction assessed as CYP450-mediated metabolism by measuring compound remaining at 5 uM pretreated with NADPH and measured after 30 mins by UPLC-MS/MS analysis; assay type: ADME, microsomes; conditions: liver microsome S9 fraction, read-out: Stability
# [27] = test system: CYP450; experiment: Drug metabolism in dog liver microsome S9 fraction assessed as CYP450-mediated metabolism by measuring compound remaining at 5 uM pretreated with NADPH and measured after 30 mins by UPLC-MS/MS analysis; assay type: ADME, microsomes, Canis lupus familiaris; conditions: liver microsome S9 fraction, read-out: Stability
# [28] = test system: Trypanosoma cruzi; experiment: Antiparasitic activity against Trypanosoma cruzi Y strain bloodstream trypomastigotes infected in Swiss Webster mouse assessed as protection against parasite-induced mortality by measuring survivial at 25 mg/kg, po bid via gavage administered for 5 consecutive days starting from day 5 post infection measured at day 40 post infection relative to control; assay type: functional
# [29] = test system: UGT; experiment: Drug metabolism in dog liver microsome S9 fraction assessed as UGT-mediated metabolism by measuring compound remaining at 5 uM pretreated with UDPGA and measured after 15 mins by UPLC-MS/MS analysis; assay type: ADME, microsomes, Canis lupus familiaris; conditions: liver microsome S9 fraction, read-out: Stability
# [30] = Cytotoxicity against human MRC5 SV2 cells assessed as reduction in cell viability after 3 days resazurin-based fluorimetric assay; conditions: MRC-5 SV2, 72 h
# [31] = test system: CYP450; experiment: Drug metabolism in mouse liver microsome S9 fraction assessed as CYP450-mediated metabolism by measuring compound remaining at 5 uM pretreated with NADPH and measured after 15 mins by UPLC-MS/MS analysis; assay type: ADME, microsomes; conditions: liver microsome S9 fraction, read-out: Stability
# [32] = molecular target: T2, Cytochrome P450 (family); experiment: Drug metabolism in human liver microsome S9 fraction assessed as CYP450-mediated metabolism by measuring compound remaining at 5 uM pretreated with NADPH and measured after 15 mins by UPLC-MS/MS analysis; assay type: ADME, microsomes; conditions: liver microsome S9 fraction, read-out: Stability
# [33] = test system: UGT; experiment: Drug metabolism in dog liver microsome S9 fraction assessed as UGT-mediated metabolism by measuring compound remaining at 5 uM pretreated with UDPGA and measured after 30 mins by UPLC-MS/MS analysis; assay type: ADME, microsomes, Canis lupus familiaris; conditions: liver microsome S9 fraction, read-out: Stability
# [34] = Cytotoxicity against Swiss mouse embryonic cardiomyocytes assessed as reduction in cell viability after 24 hrs by prestoblue-staining based colorimetry; conditions: Cardiac muscle cell
# [35] = test system: CYP450; experiment: Drug metabolism in mouse liver microsome S9 fraction assessed as CYP450-mediated metabolism by measuring compound remaining at 5 uM pretreated with NADPH and measured after 60 mins by UPLC-MS/MS analysis; assay type: ADME, microsomes; conditions: liver microsome S9 fraction, read-out: Stability
smiles,measurement,setting,value
Nc1ncnc2c1c(-c1ccc(Cl)cc1)cn2[C@@H]1O[C@H](CO)[C@@H](O)[C@H]1O,Stability,[1],124%
same,"remaining at 0.5 h, 5 µM",[2],110%
same,"remaining at 0.25 h, 5 µM",[3],99%
same,"remaining at 0.25 h, 5 µM",[4],93%
same,Activity,[5],>99.8%
same,"remaining at 1 h, 5 µM",[6],93%
same,"remaining at 0.5 h, 5 µM",[7],96%
same,"remaining at 0.25 h, 5 µM",[8],100%
same,"remaining at 0.5 h, 5 µM",[9],95%
same,EC50,[10],0.029 µM
same,"remaining at 1 h, 5 µM",[11],98%
same,"remaining at 1 h, 5 µM",[12],106%
same,Activity,[13],Toxic
same,EC50,[14],> 20 µM
same,selectivity ratio,[15],57
same,"remaining at 1 h, 5 µM",[16],86%
same,"remaining at 1 h, 5 µM",[17],106%
same,Stability,[18],122%
same,Activity,[19],Non-Toxic
same,EC50,[20],0.47 µM
same,"remaining at 0.5 h, 5 µM",[21],93%
same,Activity,[22],inactive
same,"remaining at 1 h, 5 µM",[23],91%
same,"remaining at 1 h, 5 µM",[24],55%
same,"remaining at 0.5 h, 5 µM",[25],93%
same,"remaining at 0.5 h, 5 µM",[26],104%
same,"remaining at 0.5 h, 5 µM",[27],96%
same,Activity,[28],100%
same,"remaining at 0.25 h, 5 µM",[29],84%
same,EC50,[30],27 µM
same,"remaining at 0.25 h, 5 µM",[31],110%
same,"remaining at 0.25 h, 5 µM",[32],113%
same,"remaining at 0.5 h, 5 µM",[33],70%
same,EC50,[34],274 µM
same,"remaining at 1 h, 5 µM",[35],102%
